The results in this text go back to a melting point compilation (Tetko et al.; mined from patent text by program, amines drawn as free bases though some values may be those of a salt).

In general, melting point refers to the temperature of the solid-liquid transition. `O=c1[nH]c2ncc(-c3cccc(-c4nnn[nH]4)c3)nc2n1CC1CCCCC1`: the melting point is 248 to 250 °C.

`COc1cccc(S(N)(=O)=O)c1C` displayed a melting point of 193 °C.

As for `Cc1ncc(CN2CCc3ccc(OCc4ccccc4)cc3C2)c(N)n1`, the melting point lay within 151 to 153 °C.

As to `Cc1ccc(S(=O)(=O)NC(=O)N2C(=O)CN2C(c2ccccc2)c2ccccc2)cc1`, the melting point lay within 115 to 123 °C.

`CS(=O)(=O)c1ccc(-c2cnn(-c3ccc(F)c(F)c3)c(=O)c2OCCC2C=CCC2)cc1` (centres undefined): the melting point lay in the range of 126 to 127 °C.

The compound `Cc1ccc(C=CC(=O)C=Cc2ccc([N+](=O)[O-])cc2)cc1` displayed a melting point of 182 to 184 °C.

`N#CCCNC(=O)C1=CC(CF)(CF)Oc2ccc(C(F)(F)C(F)(F)C(F)(F)F)cc21`: the melting point fell in the range of 135 to 136 °C.

As to `Cc1ccccc1-c1c(NC(=O)Nc2c(C(C)C)cccc2C(C)C)oc2ccc(Cl)cc12`, the melting point amounted to 240 °C.

`CN1C(=O)C(NC(=O)Nc2cccc3ccccc23)N=C(c2ccccc2)c2ccccc21` (centres undefined): the melting point is 234 to 235 °C.

For `CCCCc1c(C(=O)OCC)cc(OC)c2ccc(OC)cc12`, the melting point lay in the range of 44 to 45 °C.

Consider `COC(=O)OCCNC(=O)C(F)(F)Cc1c[nH]c([N+](=O)[O-])n1`, for which the melting point was 50.5 to 52.5 °C.

`COc1ccc(S(=O)(=O)C2(C(=O)O)CCN(CCc3ccccc3)CC2)cc1` returned a melting point of 208 °C.

With `Cn1nc(OCc2ccccc2)cc1C=O`, the melting point fell in the range of 49.5 to 50.5 °C.

`Clc1ccc2c(c1)C(c1ccco1)=NCC1CSCCN21` (centres undefined) came in with a melting point of 138 to 140 °C.

With `CN(C(=O)c1nsc2ccc(-n3c(=O)cc(C(F)(F)F)n(C)c3=O)cc12)S(C)(=O)=O`, the melting point lay within 120 to 122 °C.

`CC1C(O)CCC2CC3(CCC21)OCCO3` (centres undefined) came in with a melting point of 56 to 68 °C.

As to `COC(=O)C1=C(C)NC(C)=C(c2nc(CN(C)Cc3ccccc3)no2)C1c1cccc([N+](=O)[O-])c1` (centres undefined), the melting point fell in the range of 127 to 128 °C.

In the case of `COc1cc(OC)c(S(C)(=O)=O)cc1C(=O)O`, the melting point was 292 °C.

In the case of `Cc1ncn(-c2ccc(NC(=O)OCc3ccccc3)cc2F)n1`, the melting point was 153 to 155 °C.

`O=C(NNc1ccccc1C(F)(F)F)c1c(F)cccc1F` showed a melting point of 129 to 130 °C.

The compound `CCCCCCCCCCCCCCCCCCOC(=O)CCCCCCCCCCCCCCCCC` showed a melting point of 47 to 55 °C.

`Cc1nc(N)c(C#N)c(-c2ccco2)n1` returned a melting point of 317 to 320 °C.

Take `c1coc(Cn2c(NC3CCN(CCOc4nccs4)CC3)nc3ccccc32)c1`: the melting point was found to be 136 °C.

Regarding `CCCCOC(Cl)C(=O)NCC1OC(C)C(C)O1` (centres undefined), the melting point was 28 °C.

In turn, `NS(=O)(=O)c1cnc(NC(=O)c2cnn3c(C(F)F)cc(-c4ccc(C(F)(F)F)cc4)nc23)s1` came in with a melting point of 311 °C.

Take `COc1ccc(C(F)(F)F)cc1NC(=O)Nc1ccc(-c2c(C(N)=O)[nH]c3ccccc23)cc1`: the melting point fell in the range of 178 to 180 °C.

Compound `O=C(O)Cc1ccc(CCCSc2ccc(Cl)cc2)cc1` showed a melting point of 94 to 96 °C.

Turning to `CC(C)(C)OC(=O)C(=NO)C(=O)CCOCc1ccccc1`, the melting point lay in the range of 98 to 100 °C.

With `CCC1CC2C3CCC4=CC(=O)CCC4C3CCC2(C)C1OC(=O)CO` (centres undefined), the melting point lay within 156 to 157 °C.

Compound `Cc1nonc1-n1cc(C(=O)O)c(=O)c2cc(F)c(Cl)nc21` came in with a melting point of 242 to 247 °C.

For `CCOC(=O)c1ccc(CC(=O)Nc2csc3nc(C(=O)NCc4cccc(OC)c4)[nH]c(=O)c23)cc1`, the melting point lay in the range of 218 to 219 °C.

Turning to `Cc1c(C(=O)Nc2ccc(N3CCN(C)CC3)c(C#N)c2)cnn1-c1ccc(F)cc1`, the melting point was in the range of 205 to 207 °C.

In turn, `CCn1c(CC(=O)O)ccc1C(=O)c1ccc(Cl)cc1` came in with a melting point of 149 to 153 °C.

Take `CCOC(=O)c1ccc(-c2[nH]nc3c2C(=O)c2c(NC(=O)N(NC)NC)cccc2-3)s1`: the melting point was determined as 252 °C.
